Source: PMC11995724, “Antibiotic target discovery by integrated phenotypic and activity-based profiling of electrophilic fragments” (Cell chemical biology, 2025)

Assay: in vitro
Conditions: human, hek293t cells
Experimental: Mammalian cytotoxicity measurement was performed using Cell Titer-Glo 2.0 Cell Viability Assay (Promega, G9243) according to the manufacturer protocol. In brief, mammalian cells were seeded into 384-well white plates (Greiner, 781080) and incubated at 37°C for one day. Compounds from the Cys-Library were dispensed into the assay plate using epMotion 96. The plates were then incubated at 37°C for two days. An equal volume of Cell Titer-Glo 2.0 reagent was added into each well of the assay plate using epMotion 96 and incubated at 22°C for 10 min, followed by luminescence measurement using a Cytation 5 plate reader (BioTek).

Structure (SMILES)	viability at 48 h, 25 µM [%]
N#CC(=Cc1ccco1)C(=O)Nc1cccc(Cn2cccn2)c1 [8-I20, 2-cyano-3-(furan-2-yl)-N-{3-[(1H-pyrazol-1-yl)methyl]phenyl}prop-2-enamide]	82.1
Cc1ccc(C=C(C#N)C(=O)NC(C)C)o1 [8-I21, 2-cyano-3-(5-methylfuran-2-yl)-N-(propan-2-yl)prop-2-enamide]	95.7
CCOc1ccc(C=C(C#N)C(=O)Nc2ccncc2)cc1 [8-I22, 2-cyano-3-(4-ethoxyphenyl)-N-(pyridin-4-yl)prop-2-enamide]	99.3
Cc1ccccc1NC(=O)C(C#N)=Cc1ccc2c(c1)OCCO2 [8-J03, 2-cyano-3-(2,3-dihydro-1,4-benzodioxin-6-yl)-N-(2-methylphenyl)prop-2-enamide]	93.5
C=CCNC(=O)C(C#N)=Cc1ccc(C(=O)O)cc1 [8-J04, 4-{2-cyano-2-[(prop-2-en-1-yl)carbamoyl]eth-1-en-1-yl}benzoic acid]	87.1
N#CC(=Cc1ccc(C#N)cc1)C(=O)Nc1cccc(Cl)c1Cl [8-J05, 2-cyano-3-(4-cyanophenyl)-N-(2,3-dichlorophenyl)prop-2-enamide]	112
N#CC(=Cc1cccc(Cl)c1Cl)C(=O)NCCc1ccccc1 [8-J06, 2-cyano-3-(2,3-dichlorophenyl)-N-(2-phenylethyl)prop-2-enamide]	10.1
Cc1cccc(C=C(C#N)C(=O)NC(C)C)c1 [8-J07, 2-cyano-3-(3-methylphenyl)-N-(propan-2-yl)prop-2-enamide]	94.3
CC(C)NC(=O)C(C#N)=Cc1ccc(Cl)c([N+](=O)[O-])c1 [8-J08, 3-(4-chloro-3-nitrophenyl)-2-cyano-N-(propan-2-yl)prop-2-enamide]	0.544
N#CC(=Cc1cccc2ccccc12)C(=O)NCc1ccc(Cl)cc1 [8-J09, N-[(4-chlorophenyl)methyl]-2-cyano-3-(naphthalen-1-yl)prop-2-enamide]	66
Cn1cc(C=C(C#N)C(=O)NCc2ccccc2)cn1 [8-J10, N-benzyl-2-cyano-3-(1-methyl-1H-pyrazol-4-yl)prop-2-enamide]	111
CC(NC(=O)C(C#N)=Cc1ccc(-c2ccccc2)cc1)c1ccccc1 (stereo not drawn) [8-J11, 3-{[1,1'-biphenyl]-4-yl}-2-cyano-N-(1-phenylethyl)prop-2-enamide]	26.5
COc1ccc(C=C(C#N)C(=O)NCc2ccco2)cc1 [8-J12, 2-cyano-N-[(furan-2-yl)methyl]-3-(4-methoxyphenyl)prop-2-enamide]	112
N#CC(=Cc1cccc(Cl)c1)C(=O)Nc1ccccc1C(F)(F)F [8-J13, 3-(3-chlorophenyl)-2-cyano-N-[2-(trifluoromethyl)phenyl]prop-2-enamide]	101
N#CC(=Cc1ccccc1)C(=O)Nc1nnn[nH]1 [8-J14, 2-cyano-3-phenyl-N-(1H-1,2,3,4-tetrazol-5-yl)prop-2-enamide]	111
CCC1SC(=C(C#N)C(N)=O)N(c2ccc(C)cc2)C1=O (stereo not drawn) [8-J15, 2-cyano-2-[5-ethyl-3-(4-methylphenyl)-4-oxo-1,3-thiazolidin-2-ylidene]acetamide]	117
Cc1cc(C=C(C#N)C(=O)NCc2ccco2)cc(C)c1O [8-J16, 2-cyano-N-[(furan-2-yl)methyl]-3-(4-hydroxy-3,5-dimethylphenyl)prop-2-enamide]	114
Cc1ccc(NC(=O)C(C#N)=Cc2cccc([N+](=O)[O-])c2)cc1 [8-J17, 2-cyano-N-(4-methylphenyl)-3-(3-nitrophenyl)prop-2-enamide]	88.1

Structure (SMILES)	viability at 48 h, 25 µM [%]
COc1ccc(C=C(C#N)C(=O)NC(C)c2ccccc2)cc1O (stereo not drawn) [8-J18, 2-cyano-3-(3-hydroxy-4-methoxyphenyl)-N-(1-phenylethyl)prop-2-enamide]	93.3
COc1ccc(C=C(C#N)C(=O)Nc2ccccc2OC)cc1O [8-J19, 2-cyano-3-(3-hydroxy-4-methoxyphenyl)-N-(2-methoxyphenyl)prop-2-enamide]	107
N#CC(=Cc1ccc(OC(F)F)cc1)C(=O)N1CCCCC1 [8-J20, 3-[4-(difluoromethoxy)phenyl]-2-(piperidine-1-carbonyl)prop-2-enenitrile]	82.8
N#CC(=Cc1cccc(Cl)c1Cl)C(N)=O [8-J21, 2-cyano-3-(2,3-dichlorophenyl)prop-2-enamide]	121
N#CC(=Cc1cccc(F)c1)C(=O)NCCc1ccccc1 [8-J22, 2-cyano-3-(3-fluorophenyl)-N-(2-phenylethyl)prop-2-enamide]	103
COc1ccc(C=C(C#N)C(=O)Nc2ccc(Cl)cc2Cl)cc1 [8-K03, 2-cyano-N-(2,4-dichlorophenyl)-3-(4-methoxyphenyl)prop-2-enamide]	104
COc1cccc(NC(=O)C(C#N)=Cc2csnn2)c1 [8-K04, 2-cyano-N-(3-methoxyphenyl)-3-(1,2,3-thiadiazol-4-yl)prop-2-enamide]	80.5
N#CC(=Cc1ccc(Sc2ccccc2)o1)C(=O)Nc1ccccc1 [8-K05, 2-cyano-N-phenyl-3-[5-(phenylsulfanyl)furan-2-yl]prop-2-enamide]	70
N#CC(=Cc1ccc(F)cc1)C(=O)NCCc1cccc(Cl)c1 [8-K06, N-[2-(3-chlorophenyl)ethyl]-2-cyano-3-(4-fluorophenyl)prop-2-enamide]	49.6
Cc1cccc(C=C(C#N)C(=O)NC2CCCCC2)c1 [8-K07, 2-cyano-N-cyclohexyl-3-(3-methylphenyl)prop-2-enamide]	45
CCCCNC(=O)C(C#N)=Cc1cc(F)ccc1F [8-K08, N-butyl-2-cyano-3-(2,5-difluorophenyl)prop-2-enamide]	39.8
N#CC(=Cc1ccccc1)C(=O)Nc1nncs1 [8-K09, 2-cyano-3-phenyl-N-(1,3,4-thiadiazol-2-yl)prop-2-enamide]	94.2
COc1cc(Cl)c(C)cc1NC(=O)C(C#N)=Cc1c(C)n[nH]c1C [8-K10, N-(4-chloro-2-methoxy-5-methylphenyl)-2-cyano-3-(3,5-dimethyl-1H-pyrazol-4-yl)prop-2-enamide]	83.6
N#CC(=Cc1cccc2ccccc12)C(=O)Nc1ccccc1Cl [8-K11, N-(2-chlorophenyl)-2-cyano-3-(naphthalen-1-yl)prop-2-enamide]	80.5
N#CC(=Cc1cccc2c1OCO2)C(=O)Nc1cccc2ccccc12 [8-K12, 3-(1,3-dioxaindan-4-yl)-2-cyano-N-(naphthalen-1-yl)prop-2-enamide]	63.4
Cc1ccc(NC(=O)C(C#N)=Cc2ccc(C)s2)cc1 [8-K13, 2-cyano-N-(4-methylphenyl)-3-(5-methylthiophen-2-yl)prop-2-enamide]	77
Cc1cc(C=C(C#N)C(=O)Nc2ccncc2)c(C)n1C1CC1 [8-K14, 2-cyano-3-(1-cyclopropyl-2,5-dimethyl-1H-pyrrol-3-yl)-N-(pyridin-4-yl)prop-2-enamide]	71.6
Cc1ccccc1NC(=O)C(C#N)=Cc1ccsc1 [8-K15, 2-cyano-N-(2-methylphenyl)-3-(thiophen-3-yl)prop-2-enamide]	77.5
